Tests used:
[1] = test system: 3-enzyme system (S-ADH coupled to lactate dehydrogenase and pyruvate oxidase); assay: S-ADH coupled to H2O2 formation electrochemical assay (3-enzyme system), interference compounds; format: biochemical, X. autotrophicus Py2; details: Acetone plus 10 mM ethanol, 50 μM isopropanol or 50 μM isobutanol; data not shown
Procedure: Secondary alcohol dehydrogenase coupled to H2O2 formation electrochemical assay. […] Before measurements the electrode surface was polished using Al2O3 paste for 1 min. and then rinsed with deionized water, sonicated for 1 min. and rinsed with water again. The polished Pt electrode was then pretreated electrochemically by applying 10 cycles of 100 mV/s from +200 mV to +900 mV. All potentials were referenced versus a Ag/AgCl electrode (BAS part number MF-2078). Assays contained potassium phosphate (100 mM, pH 7.2), purified S-ADH (1 U/mL), NADH (201 μM), lactate (100 mM), lactate dehydrogenase (5 U/mL), pyruvate oxidase (4 U/mL), flavin adenine dinucleotide (0.01 mM), cocarboxylase (0.2 mM), in a total volume of 0.5 mL. […] After a 2 min. incubation period, the potential was stepped from open circuit to 350 mV.

S-ADH from strain IP-1 = assay: S-ADH spectrophotometric assay, partially purified S-ADH of isolate IP-1; format: biochemical, isopropanol-grown bacterial strain TDCC IP-1
Procedure: Protein purifications. […] Secondary alcohol dehydrogenase (S-ADH) from X. autotrophicus Py2 was purified via the following protocol. Cell-free extracts (380 mL) of isopropanol-grown X. autotrophicus Py2 (150 g) were prepared as described above, and applied to a 5×15 cm column of DEAE-Sepharose FAST FLOW (Diethylaminoethyl cross-linked agarose bead material; Catalog number 17-0709-10, Amersham Pharmacia Biotech, Piscataway, N.J.)) equilibrated in buffer A (25 mM MOPS (3-(N-morpholino)propanesulfonic acid), pH 7.6, 5% glycerol, 1 mM dithiothreitol) at a flow rate of 10 mL/min. After loading, the column was washed with […] buffer A and developed with a 2400 mL linear gradient of 90-290 mM KCl in buffer A. Fractions containing S-ADH activity were pooled and dialyzed against 2 L of 25 mM potassium phosphate (pH 6.2) containing 5% glycerol (buffer B) for 16 h at 4° C. […] After washing the column with 30 mL of buffer B, S-ADH was eluted with 20 mL of buffer A containing 10 mM NAD^+. Fractions containing S-ADH were then dialyzed against 2 L of buffer A for 16 h at 4° C., concentrated by ultrafiltration (using a YM30 ultrafiltration membrane; catalog no. 13722, from Millipore, Bedford, Mass.), and frozen in liquid nitrogen. Partially purified S-ADH from bacterial screen cultures was prepared as follows: cell-free extracts from 1 to 5 g of cell paste were prepared as described above and applied to a 5 mL HI TRAP Q column (quaternary, tetraethylammonium, cross-linked agarose bead material for use as an anion exchange matrix; catalog number 17-1153-01, Amersham Pharmacia Biotech) equilibrated in 100 mM MOPS, pH 7.6, containing 5% (v/v) glycerol (buffer C). The column was washed with 10 mL buffer C and developed with a 100 mL linear gradient of 0 to 100 mM NaCl in buffer C. Fractions containing S-ADH activity were pooled, concentrated to 0.5 mL using a 30 kDa MWCO (“molecular weight cut-off”) centrifugal membrane (catalog number UFV4BTK25, Millipore), and stored at −80° C.
(§1) Assays were performed in 2 mL quartz cuvettes and contained NAD(H) (0.2 mM), potassium phosphate buffer (25 mM), and a source of enzyme (cell-free extracts, column fractions, or purified enzyme) in a total reaction volume of 1 mL at pH 6.2 ([…]) at 30° C. Assays were pre-incubated for 1.5 min. at 30° C. with all assay components except substrate. Assays were initiated by addition of substrate (2.5 mM) and monitored over time by measuring the change in absorbance at 340 nm (∈340 of 6.22 mM^−1·cm^−1 for NADH).

[2] = test system: S-ADH from X. autotrophicus strain Py2; assay: Secondary alcohol dehydrogenase NADH oxidation spectrophotometric assay; format: biochemical, Xanthobacter autotrophicus strain Py2
Procedure: as §1
Data analysis. Kinetic constants (Km and Vmax) were calculated by fitting initial rate data to the Michaelis-Menten equation and using the software KaleidaGraph Fourth Edition, (Synergy Software, Reading, Pa.).

S-ADH from T. brockii = target: T1, S-ADH from T. brockii (Thermoanaerobacter brockii, UniProt P14941); assay: S-ADH spectrophotometric assay, T. brockii S-ADH; format: biochemical, Thermoanaerobium brockii; details: ketone reduction rates, pH 6.2, 2.5 mM substrate, 0.2 mM NADPH; acetone = 100
T1 sequence (P14941 1-352): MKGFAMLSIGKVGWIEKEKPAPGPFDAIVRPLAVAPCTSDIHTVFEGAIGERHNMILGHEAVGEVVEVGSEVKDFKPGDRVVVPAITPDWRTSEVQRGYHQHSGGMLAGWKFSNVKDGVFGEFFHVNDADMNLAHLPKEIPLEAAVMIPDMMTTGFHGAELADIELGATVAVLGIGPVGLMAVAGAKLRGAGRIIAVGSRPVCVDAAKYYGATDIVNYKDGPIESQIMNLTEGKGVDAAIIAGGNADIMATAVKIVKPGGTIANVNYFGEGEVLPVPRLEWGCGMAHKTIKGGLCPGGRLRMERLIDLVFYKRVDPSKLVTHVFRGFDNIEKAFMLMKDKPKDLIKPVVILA
Procedure: […] Assays were pre-incubated for 1.5 min. at 30° C. with all assay components except substrate. Assays were initiated by addition of substrate (2.5 mM) and monitored over time by measuring the change in absorbance at 340 nm (∈340 of 6.22 mM^−1·cm^−1 for NADH).

[3] = test system: S-ADH from M. vaccae JOB-5; assay: S-ADH spectrophotometric assay, propane-grown M. vaccae JOB-5; format: biochemical, Mycobacterium vaccae strain JOB-5
Procedure: as §1

S-ADH from C. boidinii = assay: S-ADH spectrophotometric assay, C. boidinii S-ADH; format: biochemical, Candida boidinii; details: pH 7.6, 5 mM substrate
Procedure: as §1, with “Assays were initiated by addition of substrate (2.5 mM) and monitored over time by measuring the change in absorbance at 340 nm (∈340 of 6.22 mM^−1·cm^−1 for NADH).” left out

[4] = target: T2, acetone carboxylase coupled to β-hydroxybutyrate dehydrogenase (Xanthobacter versatilis, UniProt Q8RM03+Q8RM04); assay: Acetone carboxylase coupled to NADH oxidation spectrophotometric assay; format: biochemical, X. autotrophicus strain Py2; details: alternative compounds in coupled enzyme system
T2 construct: host or cells: X. autotrophicus strain Py2 (native organism; enzyme obtained from Prof; S. A. Ensign / purified as previously published)
T2 sequence (Q8RM03 1-776): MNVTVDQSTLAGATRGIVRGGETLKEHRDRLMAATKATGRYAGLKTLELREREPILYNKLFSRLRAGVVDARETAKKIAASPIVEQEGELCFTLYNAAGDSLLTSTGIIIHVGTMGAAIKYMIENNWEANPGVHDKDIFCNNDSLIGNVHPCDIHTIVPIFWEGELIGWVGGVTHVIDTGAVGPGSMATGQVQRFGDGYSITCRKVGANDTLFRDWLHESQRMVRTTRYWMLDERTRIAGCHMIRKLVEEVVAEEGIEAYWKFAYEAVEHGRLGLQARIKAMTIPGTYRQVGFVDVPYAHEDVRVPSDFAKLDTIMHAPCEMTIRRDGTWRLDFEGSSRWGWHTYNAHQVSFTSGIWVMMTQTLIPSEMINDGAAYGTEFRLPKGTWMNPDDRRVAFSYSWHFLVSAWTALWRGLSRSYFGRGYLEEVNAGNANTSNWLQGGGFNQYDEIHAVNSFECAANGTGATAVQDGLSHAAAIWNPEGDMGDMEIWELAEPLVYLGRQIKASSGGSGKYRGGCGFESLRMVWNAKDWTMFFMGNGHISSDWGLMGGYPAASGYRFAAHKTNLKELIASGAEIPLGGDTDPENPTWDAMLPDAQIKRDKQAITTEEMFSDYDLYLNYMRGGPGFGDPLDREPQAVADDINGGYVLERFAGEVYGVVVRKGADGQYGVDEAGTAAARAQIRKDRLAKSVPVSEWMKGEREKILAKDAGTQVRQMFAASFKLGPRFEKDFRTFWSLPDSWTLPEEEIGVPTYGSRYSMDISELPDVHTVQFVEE
T2 sequence (Q8RM04 1-717): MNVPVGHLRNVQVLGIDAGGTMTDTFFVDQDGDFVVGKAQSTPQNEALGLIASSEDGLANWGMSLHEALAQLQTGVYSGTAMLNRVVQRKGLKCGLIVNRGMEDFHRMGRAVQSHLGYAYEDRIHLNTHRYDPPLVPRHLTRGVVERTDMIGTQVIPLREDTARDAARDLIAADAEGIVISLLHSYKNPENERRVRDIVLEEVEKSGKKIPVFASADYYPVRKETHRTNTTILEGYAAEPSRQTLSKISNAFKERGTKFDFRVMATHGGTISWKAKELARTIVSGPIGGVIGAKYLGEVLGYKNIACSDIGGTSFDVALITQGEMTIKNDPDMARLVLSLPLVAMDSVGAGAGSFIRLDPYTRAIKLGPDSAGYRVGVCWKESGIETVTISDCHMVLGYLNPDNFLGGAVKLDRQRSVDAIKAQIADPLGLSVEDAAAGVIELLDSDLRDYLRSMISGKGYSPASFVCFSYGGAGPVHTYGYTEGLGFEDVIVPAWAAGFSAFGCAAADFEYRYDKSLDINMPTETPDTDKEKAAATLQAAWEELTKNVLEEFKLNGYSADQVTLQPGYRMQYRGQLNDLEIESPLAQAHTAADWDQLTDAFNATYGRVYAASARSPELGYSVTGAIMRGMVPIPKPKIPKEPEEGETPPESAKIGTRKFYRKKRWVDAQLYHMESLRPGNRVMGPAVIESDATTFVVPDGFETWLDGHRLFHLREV
T2 sequence (Q8RM02 2-168 partner limits assumed): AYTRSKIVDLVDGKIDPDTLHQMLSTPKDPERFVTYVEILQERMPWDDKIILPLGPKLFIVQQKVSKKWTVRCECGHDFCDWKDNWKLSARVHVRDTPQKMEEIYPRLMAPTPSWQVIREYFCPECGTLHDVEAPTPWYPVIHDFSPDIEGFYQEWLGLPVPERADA
Procedure: Assays were performed in 2 mL (1 cm path length) quartz cuvettes that had been modified by fusing a serum bottle-style quartz top (7×13 mm at mouth), allowing the cuvettes to be sealed with a red rubber serum stopper. […] The addition of […] (3 U) and NADH (0.2 mM) allowed acetoacetate formation to be coupled to the oxidation of NADH. […] The reaction was monitored by measuring the decrease in absorbance at 340 nm (∈340 of 6.22 mM^−·cm^−1 for NADH) over time in an Agilent Technologies (Palo Alto, Calif.) model 8453 UV-Visible Spectroscopy System containing a thermostat-controlled cell holder at 30° C.

[5] = constant perfusion at 1.36 mmol/min. for three hours; cited from earlier work
[6] = ketone reduction rates, pH 6.2, 2.5 mM substrate, 0.2 mM NADH, acetone = 100
[7] = alcohol oxidation rates, pH 7.6, 2.5 mM substrate, 0.2 mM NAD+, 2-propanol = 100, NA = no activity detected

For CC(C)CO [isobutanol], the “interference with the acetone measurement (current response)” value [1] was “do not interfere”.

In the case of CCCC(C)=O [2-Pentanone], the “Relative S-ADH Activity (%) IP-1, ketone reduction” value (S-ADH from strain IP-1; [6]) was 44%, the “Relative S-ADH Activity (%) X. Py2, ketone reduction” value [2, 6] was 198% and the “Relative S-ADH Activity (%) T. brockii, ketone reduction” value (S-ADH from T. brockii) was 59%. The “Relative S-ADH Activity (%) JOB 5, ketone reduction” value [3, 6] was 185% and the “Relative S-ADH Activity (%) C. boidinii, ketone reduction” value (S-ADH from C. boidinii; ketone reduction rates, 0.2 mM NADH, acetone = 100) was 16%.

With NC(=O)C1=CN([C@@H]2O[C@H](COP(=O)(O)OP(=O)(O)OC[C@H]3O[C@@H](n4cnc5c(N)ncnc54)[C@H](OP(=O)(O)O)[C@@H]3O)[C@@H](O)[C@H]2O)C=CC1 [NADPH, nicotinamide adenine dinucleotide phosphate, reduced form] the “ability to serve as electron donor in acetone reduction assays” value ([2]; data not shown) was “not”.

In the case of CCCCO [1-Butanol], the “Relative S-ADH Activity (%) IP-1, alcohol oxidation” value (S-ADH from strain IP-1; [7]) was 2%, the “Relative S-ADH Activity (%) X. Py2, alcohol oxidation” value [2, 7] was 7% and the “specific activity, alcohol oxidation” value ([2]; at pH 7.8) was 1.7±0.2 μmol alcohol oxidized min^−1mg^−1 protein. For the same compound, the “Relative S-ADH Activity (%) JOB 5, alcohol oxidation” value [3, 7] was 10%, the “activity as substrate and inhibition of acetone carboxylation activity” value [4] was “not active nor did they inhibit acetone carboxylation activity” and the “Relative S-ADH Activity (%) C. boidinii, alcohol oxidation” value (S-ADH from C. boidinii; alcohol oxidation rates, 0.2 mM NAD+, 2-propanol = 100) was 6%.

For CC(=O)CC(=O)[O-].[Na+] [Na acetoacetate], the “blood ketone body concentration at the end of perfusion” value [5] is given as 3 µmol·mL.
